How the values were obtained:
HDAC1 = HDAC1 (Homo sapiens, UniProt Q13547); experiment: Biochemical Selectivity: HDAC1 inhibition
Source text: (§1) Compounds of the invention may be tested for HDAC inhibitory activity by any suitable assay, e.g. the assay described in WO2008/062201.

HDAC6 = target: T1, HDAC6 (Homo sapiens, UniProt Q9UBN7); experiment: Biochemical Selectivity: HDAC6 inhibition
T1 sequence (Q9UBN7 1-1215): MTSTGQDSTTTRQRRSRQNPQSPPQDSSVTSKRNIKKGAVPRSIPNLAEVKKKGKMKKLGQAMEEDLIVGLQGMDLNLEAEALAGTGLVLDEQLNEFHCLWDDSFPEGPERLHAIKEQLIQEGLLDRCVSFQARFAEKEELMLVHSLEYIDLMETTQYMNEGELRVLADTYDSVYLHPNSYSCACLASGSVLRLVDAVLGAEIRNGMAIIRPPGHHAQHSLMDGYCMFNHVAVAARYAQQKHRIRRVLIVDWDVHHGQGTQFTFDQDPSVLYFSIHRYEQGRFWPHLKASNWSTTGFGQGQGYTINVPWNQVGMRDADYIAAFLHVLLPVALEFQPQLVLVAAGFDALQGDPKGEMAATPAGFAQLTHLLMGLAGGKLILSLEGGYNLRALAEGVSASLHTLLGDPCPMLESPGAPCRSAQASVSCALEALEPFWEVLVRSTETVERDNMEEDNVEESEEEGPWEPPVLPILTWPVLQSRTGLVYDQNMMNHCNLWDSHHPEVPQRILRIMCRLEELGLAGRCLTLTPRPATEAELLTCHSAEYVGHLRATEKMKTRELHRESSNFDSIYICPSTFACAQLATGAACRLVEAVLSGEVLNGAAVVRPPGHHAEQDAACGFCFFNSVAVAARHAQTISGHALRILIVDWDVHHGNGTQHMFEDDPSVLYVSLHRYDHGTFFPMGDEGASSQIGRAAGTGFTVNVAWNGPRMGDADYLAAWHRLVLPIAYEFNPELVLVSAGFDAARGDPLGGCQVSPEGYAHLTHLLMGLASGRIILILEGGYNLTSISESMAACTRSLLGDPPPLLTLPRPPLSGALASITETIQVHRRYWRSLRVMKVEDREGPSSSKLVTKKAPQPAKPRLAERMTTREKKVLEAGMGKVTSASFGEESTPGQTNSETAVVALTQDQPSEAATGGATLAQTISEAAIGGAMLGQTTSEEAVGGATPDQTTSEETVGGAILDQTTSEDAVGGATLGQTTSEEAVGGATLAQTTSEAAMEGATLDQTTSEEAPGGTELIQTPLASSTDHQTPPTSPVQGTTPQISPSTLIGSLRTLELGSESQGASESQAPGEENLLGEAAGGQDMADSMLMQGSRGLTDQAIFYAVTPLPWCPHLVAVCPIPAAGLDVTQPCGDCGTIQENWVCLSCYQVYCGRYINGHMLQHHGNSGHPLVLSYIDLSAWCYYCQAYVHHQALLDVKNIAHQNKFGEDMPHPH
Source text: as §1

[1] = Plasma clearance following IV dosing, CD1 mouse (Example A of WO 2014/072714 protocol); assay type: in vivo; conditions: male CD1 mouse, 5 mg/kg I.V., 10% DMSO, 15% Cremophor, 75% Saline
Description: Formulation: Solutions in 10% DMSO, 15% Cremophor, 75% Saline
Dosing: 10 mg/kg P.O. and 5 mg/kg I.V.
Protocol: • n=3 male mice per time point per route; • Terminal blood sampling at 8 time points (5 min, 10 min, 0.5 hr, 1 hr, 3 hr, 6 hr, 8 hr and, 24 hr); • Collection of plasma, bio-analysis and report of AUC, AUMC, Vss, CL, half life, MRT and bioavailability.

[2] = Plasma clearance following IV dosing, Balb/c mice (Example D protocol); assay type: in vivo; conditions: mouse, male Balb/c mice, 3 mg/kg i.v., 5% NMP, 5% solutol HS-15 in 90% HPβCD solution
Description: A group of eighteen male Balb/c mice were divided into two groups Group 1 (3 mg/kg; i.v.), Group 2 (10 mg/kg; p.o.) with each group comprising of nine mice. Animals in Group 1 were administered intravenously with Example D solution formulation in 5% NMP, 5% solutol HS-15 in 90% HPβCD solution (20% HPβCD in RO water) at 3 mg/kg dose while animals in Group 2 were administered orally with 10 mg/kg solution formulation of Example D in 5% NMP, 5% solutol HS-15 in 90% HPβCD solution (20% HPβCD in RO water). Blood samples (approximately 60 μL) were collected from retro orbital plexus under light isoflurane anesthesia such that the samples were obtained at pre-dose, 0.08, 0.25, 0.5, 1, 2, 4, 8 and 24 hr (i.v.) and pre-dose, 0.25, 0.5, 1, 2, 4, 6, 8 and 24 hr (p.o.). The blood samples were collected from set of three mice at each time point in labeled micro centrifuge tube containing K2EDTA as anticoagulant. Plasma samples were separated by centrifugation of whole blood and stored below −70° C. until bioanalysis. All samples were processed for analysis by protein precipitation using acetonitrile (ACN) and analyzed with fit for purpose LC/MS/MS method (LLOQ: 1.27 ng/mL). Pharmacokinetic parameters were calculated using the non-compartmental analysis tool of Phoenix WinNonlin (Version 6.3).

[3] = Plasma clearance following IV dosing, CD1 mice (Example 3 of WO 2010/086646 protocol); assay type: in vivo; conditions: mouse, male CD1 mice, 5 mg/kg intravenously, 10% NMP/90% water
Description: Compound was administered both intravenously and orally to mice. Blood samples were collected at up to 7 time points over 8 hours and plasma was analysed by LC-MS/MS to determine the concentration of compound at each time point. The plasma time concentration profile was delivered along with the main calculated PK parameters (Co, Cmax, AUC-last, t1/2, tmax, Vd, and CL).
Three male CD1 mice, 25-30 g, were dosed per administration route per timepoint. Compound was administered both orally (10 mg compound per kg of body weight) and intravenously (5 mg compound per kg body weight). The excipient used was 10% NMP/90% water. Animals were given free access to food throughout the study.
At the following time points, the animals were anaesthetized, blood collected in heparinized tubes and animals were sacrificed:
Blood samples were centrifuged to obtain the plasma, which was transferred to a separate, labelled container. Aliquots from the individual time points for the three animals were analyzed singly. Protein was precipitated by adding three volumes of methanol and centrifuging for 30 min at 4° C. […] The plasma samples were quantified by LC-MS/MS and the concentration of compound in plasma was reported in μg/mL. Pharmacokinetic parameters were calculated employing non-compartmental model analysis.

HDAC1, sequence (Q13547 whole entry, species assumed): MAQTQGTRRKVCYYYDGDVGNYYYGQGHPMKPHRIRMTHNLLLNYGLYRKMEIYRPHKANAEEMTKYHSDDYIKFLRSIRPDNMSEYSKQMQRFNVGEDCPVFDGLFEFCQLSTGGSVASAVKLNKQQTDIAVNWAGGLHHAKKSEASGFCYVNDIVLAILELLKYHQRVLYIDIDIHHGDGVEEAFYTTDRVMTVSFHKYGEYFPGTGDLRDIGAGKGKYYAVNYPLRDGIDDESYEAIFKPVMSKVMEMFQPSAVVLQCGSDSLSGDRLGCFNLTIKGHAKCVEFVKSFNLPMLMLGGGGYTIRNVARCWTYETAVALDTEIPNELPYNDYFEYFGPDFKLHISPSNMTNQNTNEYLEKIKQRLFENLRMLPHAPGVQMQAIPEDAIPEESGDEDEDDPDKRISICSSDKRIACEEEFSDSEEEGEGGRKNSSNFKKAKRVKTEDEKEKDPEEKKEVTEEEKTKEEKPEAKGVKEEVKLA

SMILES | IC50 (HDAC1) | IC50 (HDAC6) | clearance [1] | clearance [2] | clearance [3]
Cc1nsc(N(CCCCCCC(=O)NO)c2ccnc(N3CCOCC3)n2)n1 [Example G, N-Hydroxy-7-[(3-methyl-1,2,4-thiadiazol-5-yl)[2-(morpholin-4-yl)pyrimidin-4-yl]amino]heptanamide] | 100 to 1000 nM | ≤ 100 nM |  |  | 
Cc1cc(C(=O)N(C)C)nc(N(CCCCCCC(=O)NO)c2nc(C)ns2)n1 [Example L, 2-{[6-(hydroxycarbamoyl)hexyl](3-methyl-1,2,4-thiadiazol-5-yl)amino}-N,N,6-trimethylpyrimidine-4-carboxamide] | 100 to 1000 nM | ≤ 100 nM |  |  | 
O=C(CCCCCCN(c1cnccn1)c1nccn2ncnc12)NO [Example B] | > 1000 nM | ≤ 100 nM |  |  | 
COCc1cc(N(CCCCCCC(=O)NO)c2nc(C)ns2)ncn1 [Example M, N-hydroxy-7-{[6-(methoxymethyl)pyrimidin-4-yl](3-methyl-1,2,4-thiadiazol-5-yl)amino}heptanamide] | > 1000 nM | ≤ 100 nM |  |  | 
Cn1ncc2ncnc(N(CCCCCCC(=O)NO)c3cnccn3)c21 [Example P, N-hydroxy-7-({1-methyl-1H-pyrazolo[4,3-d]pyrimidin-7-yl}(pyrazin-2-yl)amino)heptanamide] | > 1000 nM | ≤ 100 nM |  |  | 
O=C(CCCCCCN(c1cnccn1)c1ncnc2occc12)NO [Example J, 7-({Furo[2,3-d]pyrimidin-4-yl}(pyrazin-2-yl)amino)-N-hydroxyheptanamide] | > 1000 nM | ≤ 100 nM |  |  | 
Cc1nsc(N(CCCCCCC(=O)NO)c2ccccn2)n1 [Example A of WO 2014/072714] |  |  | 253 mL/min/kg |  | 
Cc1noc(N(CCCCCCC(=O)NO)c2cncc(N3CCOCC3)n2)n1 [Example S, N-hydroxy-7-[(3-methyl-1,2,4-oxadiazol-5-yl)[6-(morpholin-4-yl)pyrazin-2-yl]amino]heptanamide] | > 1000 nM | ≤ 100 nM |  |  | 
O=C(CCCCCCN(c1ccccn1)c1ccccn1)NO [Example 3 of WO 2010/086646] |  |  |  |  | 374 mL/min/kg

Now from value to compound:

IC50 (HDAC1) | IC50 (HDAC6) | clearance [1] | clearance [2] | clearance [3] | SMILES
100 to 1000 nM | ≤ 100 nM |  |  |  | O=C(CCCCCCN(c1cnccn1)c1ccn2nccc2n1)NO [Example C, N-Hydroxy-7-[(pyrazin-2-yl)({pyrazolo[1,5-a]pyrimidin-5-yl})amino]heptanamide]
100 to 1000 nM | ≤ 100 nM |  |  |  | CN(C)c1cnc(N(CCCCCCC(=O)NO)c2cnccn2)cn1 [Example Q, 7-{[5-(dimethylamino)pyrazin-2-yl](pyrazin-2-yl)amino}-N-hydroxyheptanamide]
100 to 1000 nM | ≤ 100 nM |  |  |  | O=C(CCCCCCN(c1cnccn1)c1ccc2nccn2n1)NO [Example F, N-Hydroxy-7-({imidazo[1,2-b]pyridazin-6-yl}(pyrazin-2-yl)amino) heptanamide]
> 1000 nM | ≤ 100 nM |  |  |  | O=C(CCCCCCN(c1cncnc1)c1cnccn1)NO [Example R, N-hydroxy-7-[(pyrazin-2-yl)(pyrimidin-5-yl)amino]heptanamide]
> 1000 nM | ≤ 100 nM |  |  |  | O=C(CCCCCCN(c1cnccn1)c1cnccn1)NO [Example A, 7-[Bis(pyrazin-2-yl)amino]-N-hydroxyheptanamide]
> 1000 nM | ≤ 100 nM |  |  |  | Cn1ccc2ncnc(N(CCCCCCC(=O)NO)c3cnccn3)c21 [Example N, N-hydroxy-7-({5-methyl-5H-pyrrolo[3,2-d]pyrimidin-4-yl}(pyrazin-2-yl)amino) heptanamide]
100 to 1000 nM | ≤ 100 nM |  | 48.6 mL/min/kg |  | O=C(CCCCCCN(c1cnccn1)c1ccc(C(F)(F)F)nn1)NO [Example D, N-Hydroxy-7-[(pyrazin-2-yl)[6-(trifluoromethyl)pyridazin-3-yl]amino]heptanamide]
> 1000 nM | ≤ 100 nM |  |  |  | CN(C)c1cc(N(CCCCCCC(=O)NO)c2cnccn2)ncn1 [Example I, 7-{[6-(Dimethylamino)pyrimidin-4-yl](pyrazin-2-yl)amino}-N-hydroxyheptanamide]
> 1000 nM | ≤ 100 nM |  |  |  | O=C(CCCCCCN(c1cnccn1)c1ncncc1F)NO [Example H, 7-[(5-Fluoropyrimidin-4-yl)(pyrazin-2-yl)amino]-N-hydroxyheptanamide]
100 to 1000 nM | ≤ 100 nM |  |  |  | CN(C)c1ccc(N(CCCCCCC(=O)NO)c2cnccn2)nn1 [Example O, 7-{[6-(dimethylamino)pyridazin-3-yl](pyrazin-2-yl)amino}-N-hydroxyheptanamide]
100 to 1000 nM | 100 to 1000 nM |  |  |  | O=C(CCCCCCN(c1ccncn1)c1cnccn1)NO [Example K, N-Hydroxy-7-[(pyrazin-2-yl)(pyrimidin-4-yl)amino]heptanamide]
100 to 1000 nM | ≤ 100 nM |  |  |  | COc1ccc(N(CCCCCCC(=O)NO)c2cnccn2)nn1 [Example E, N-Hydroxy-7-[(6-methoxypyridazin-3-yl)(pyrazin-2-yl)amino]heptanamide]

— patent publication US10407435B2, “Diheteroaryl histone deacetylase inhibitors and their use in therapy” (Karus Therapeutics Limited, priority 2014, dated 2019)
